Here are results for four compounds from ChEMBL document CHEMBL1135660, “Design, synthesis, and tripeptidyl peptidase II inhibitory activity of a novel series of (S)-2,3-dihydro-2-(4-alkyl-1H-imidazol-2-yl)-1H-indoles” (J Med Chem, 2002).

The target of the assay is Tripeptidyl-peptidase 2 (Rattus norvegicus, UniProt Q64560). The assay can be described thus: Inhibitory activity against tripeptidyl peptidase II purified from rat liver.
Sequence of Tripeptidyl-peptidase 2 (Q64560 whole entry): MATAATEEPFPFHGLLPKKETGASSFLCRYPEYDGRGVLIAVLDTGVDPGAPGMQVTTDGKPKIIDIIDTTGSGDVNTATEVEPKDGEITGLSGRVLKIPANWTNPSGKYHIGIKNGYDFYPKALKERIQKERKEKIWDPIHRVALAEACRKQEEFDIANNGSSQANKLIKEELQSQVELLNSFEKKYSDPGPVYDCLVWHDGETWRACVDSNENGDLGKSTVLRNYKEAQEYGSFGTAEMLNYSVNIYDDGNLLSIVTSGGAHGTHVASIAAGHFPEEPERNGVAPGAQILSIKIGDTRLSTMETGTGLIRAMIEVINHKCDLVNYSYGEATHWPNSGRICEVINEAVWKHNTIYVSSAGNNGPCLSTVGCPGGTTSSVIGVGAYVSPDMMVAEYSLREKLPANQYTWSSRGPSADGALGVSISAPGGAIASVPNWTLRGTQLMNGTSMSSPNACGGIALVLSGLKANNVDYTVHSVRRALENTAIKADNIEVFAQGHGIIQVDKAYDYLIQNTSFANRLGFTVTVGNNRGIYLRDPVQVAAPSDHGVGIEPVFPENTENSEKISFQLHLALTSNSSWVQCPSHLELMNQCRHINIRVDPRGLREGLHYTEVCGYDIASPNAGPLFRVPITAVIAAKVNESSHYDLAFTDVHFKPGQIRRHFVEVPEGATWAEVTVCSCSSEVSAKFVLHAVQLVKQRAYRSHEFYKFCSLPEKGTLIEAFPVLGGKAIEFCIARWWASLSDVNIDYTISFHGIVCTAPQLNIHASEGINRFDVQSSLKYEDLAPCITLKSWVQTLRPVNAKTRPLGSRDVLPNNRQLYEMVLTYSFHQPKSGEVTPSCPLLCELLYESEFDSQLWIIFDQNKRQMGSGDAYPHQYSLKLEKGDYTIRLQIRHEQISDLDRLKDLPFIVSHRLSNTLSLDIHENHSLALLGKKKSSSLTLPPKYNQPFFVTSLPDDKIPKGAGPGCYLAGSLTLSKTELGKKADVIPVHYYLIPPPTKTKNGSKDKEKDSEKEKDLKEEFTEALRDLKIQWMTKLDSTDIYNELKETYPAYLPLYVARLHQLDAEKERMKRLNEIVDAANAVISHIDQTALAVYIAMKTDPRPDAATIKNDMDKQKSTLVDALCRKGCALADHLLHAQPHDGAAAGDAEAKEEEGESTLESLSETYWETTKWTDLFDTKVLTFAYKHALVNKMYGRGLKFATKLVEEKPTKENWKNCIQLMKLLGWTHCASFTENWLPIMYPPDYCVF
`CC[C@H](N)C(=O)N1c2ccccc2C[C@H]1c1ncc(C)[nH]1` had an IC50 of 0.023 µM. In turn, `CC[C@@H]1NC(=O)[C@@H]2Cc3ccccc3N2C1=O` yielded an IC50 of over 10 µM.

On to `CCCc1cnc([C@@H]2Cc3ccccc3N2C(C)=O)[nH]1`, for which the IC50 is over 10 µM. In the case of `CCc1c[nH]c([C@@H]2Cc3ccccc3N2C(=O)[C@H](C)N)n1` it was over 10 µM.
